Series [1] in a line: Heat stability of the compound. In kind it is physicochemical. The source says:
The high polar head group appears to provide the bio-activity of the compound without having to incorporate a phosphonic group therein.

A further series deals with Rainbow Trout. Put plainly: Field trial of Corbinol as pigment adsorption enhancer in fish feed. The series is classed as in vivo. As to the method:
A field trial was conducted at a fish farm facility adjacent to the Rheidol hydroelectric station to establish a preliminary indication of the efficacy of Corbinol comprising 75 g palmitoylaminoproprionic acid with 925 g of silica talc carrier as a pigment adsorption enhancer. Approximately 250 Rainbow Trout were divided into two groups and held in separate tanks each 4 m×4 m×1 m. The fish were hand fed for a duration of 4 weeks, the diets for the two groups being: Control: Mainstream Trout Hi-Performance 40 Treated: Mainstream Trout Hi-Performance+Corbinol (1 kg/tonne) At the end of the trial 100 farm fish from each group were removed and individually weighed. Equal levels of flesh samples were bulked together forming 10 groups of 10 for both the control and treated diets. HPLC analysis was conducted using a Merck-Hitachi L-4250 UV-Vis detector following an isocratic method referred to in a Roche Ltd publication.

In the case of `CCCCCCCCCCCCCCCC(=O)NC(C)C(=O)O` (centres unmarked) [2-palmitoylaminoproprionic acid], the “heat stable to” value in series [1] is “approximately 130 °C”. Moreover, the “uptake of selected compounds, in particular pigments, in organisms such as fish” value in the series on Rainbow Trout is “increase the uptake of selected compounds”.

Values taken from patent US6359008B1, “Acylated aminoacids for increasing the uptake of selected substances by organisms” (Lovesgrove Research Limited, priority 1998, dated 2002).
